Patent US8791132B2, “Compounds and methods for treatment of hypertension” (Medivation Technologies, Inc., priority 2011, dated 2014)
Several values for one entry are separate records, joined by “and”; a condition that tells them apart may be missing. Equal values may be shown once. Read-outs that look alike come from different tables or passages of the source.

Legend:
[1] = target: T1, human recombinant adrenergic α1D receptor (Homo sapiens, UniProt P25100); assay: Radioligand binding, adrenergic α1D ([3H]Prazosin); conditions: [3H]Prazosin
T1 construct: expressed in transfected cells; host or cells: HEK-293
T1 sequence (P25100 1-572): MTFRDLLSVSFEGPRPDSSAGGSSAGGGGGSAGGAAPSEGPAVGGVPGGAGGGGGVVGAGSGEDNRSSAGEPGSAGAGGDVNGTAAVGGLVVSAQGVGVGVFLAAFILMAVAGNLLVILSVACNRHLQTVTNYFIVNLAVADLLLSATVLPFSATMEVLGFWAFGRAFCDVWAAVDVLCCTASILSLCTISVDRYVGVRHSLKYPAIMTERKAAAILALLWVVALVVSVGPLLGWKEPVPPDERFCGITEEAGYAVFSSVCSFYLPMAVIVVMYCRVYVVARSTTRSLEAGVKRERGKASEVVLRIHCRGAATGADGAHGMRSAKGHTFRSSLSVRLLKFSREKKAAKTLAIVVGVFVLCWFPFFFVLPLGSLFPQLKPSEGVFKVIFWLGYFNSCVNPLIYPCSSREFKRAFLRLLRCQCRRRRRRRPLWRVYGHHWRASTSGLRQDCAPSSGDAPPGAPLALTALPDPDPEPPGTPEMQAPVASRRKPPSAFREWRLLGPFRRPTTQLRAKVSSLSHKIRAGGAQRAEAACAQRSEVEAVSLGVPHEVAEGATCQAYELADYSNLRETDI
Procedure: Compounds were incubated with 0.6 nM [3H]Prazosin for 60 min at 25° C. Non-specific binding was estimated in the presence of 10 μM phentolamine. Receptor proteins were filtered and washed, the filters were then counted to determine [3H]Prazosin specifically bound. […] Biochemical assay results are presented as the percent inhibition of specific binding in Table B1.

[2] = target: T2, rat adrenergic α1B receptor (Rattus norvegicus, UniProt P15823); assay: Radioligand binding, adrenergic α1B ([3H]Prazosin); conditions: [3H]Prazosin
T2 construct: rat adrenergic α1B receptor obtained from Wistar Rat liver; from tissue; host or cells: Wistar rat liver
T2 sequence (P15823 1-515): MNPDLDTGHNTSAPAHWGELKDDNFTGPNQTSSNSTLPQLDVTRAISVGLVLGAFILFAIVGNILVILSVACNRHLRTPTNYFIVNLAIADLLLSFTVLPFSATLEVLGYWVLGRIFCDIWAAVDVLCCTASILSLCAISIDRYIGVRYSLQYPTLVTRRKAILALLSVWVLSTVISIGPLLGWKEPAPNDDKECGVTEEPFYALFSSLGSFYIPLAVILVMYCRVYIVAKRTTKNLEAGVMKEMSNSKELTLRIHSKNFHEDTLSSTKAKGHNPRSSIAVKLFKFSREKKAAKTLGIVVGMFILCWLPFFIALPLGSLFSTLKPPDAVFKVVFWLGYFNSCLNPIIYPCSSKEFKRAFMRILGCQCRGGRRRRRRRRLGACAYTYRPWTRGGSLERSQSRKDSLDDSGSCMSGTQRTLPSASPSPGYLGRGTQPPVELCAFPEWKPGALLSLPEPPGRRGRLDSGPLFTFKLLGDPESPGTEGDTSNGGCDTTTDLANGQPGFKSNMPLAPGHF
Method in brief: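 Rat α1B receptor from Wistar rat liver was incubated with 0.25 nM [3H]prazosin for 60 min at 25 °C in 50 mM Tris-HCl, pH 7.4, 0.5 mM EDTA. Non-specific binding was defined with 10 μM phentolamine. Bound radioligand was measured by filtration and counting, reported as percent inhibition of specific binding.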

[3] = target: T3, human recombinant adrenergic α2A receptor (Homo sapiens, UniProt P08913); assay: Radioligand binding, adrenergic α2A ([3H]MK-912); conditions: [3H]MK-912
T3 construct: expressed in transfected cells; host or cells: insect Sf9 cells
T3 sequence (P08913 1-465): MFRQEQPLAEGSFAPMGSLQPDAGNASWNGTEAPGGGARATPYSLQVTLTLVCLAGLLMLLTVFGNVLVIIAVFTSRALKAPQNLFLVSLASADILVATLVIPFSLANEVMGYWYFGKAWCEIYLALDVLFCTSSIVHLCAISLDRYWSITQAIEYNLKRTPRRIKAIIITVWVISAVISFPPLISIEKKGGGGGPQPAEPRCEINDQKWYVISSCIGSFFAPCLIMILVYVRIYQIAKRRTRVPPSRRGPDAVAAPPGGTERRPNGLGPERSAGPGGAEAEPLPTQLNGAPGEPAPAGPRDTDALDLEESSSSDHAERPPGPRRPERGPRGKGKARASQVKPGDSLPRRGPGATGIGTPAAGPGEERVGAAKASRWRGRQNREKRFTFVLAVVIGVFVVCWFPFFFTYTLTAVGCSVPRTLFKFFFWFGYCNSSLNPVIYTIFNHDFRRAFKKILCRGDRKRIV
Method in brief: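 Sf9 membranes, 1 nM [3H]MK-912, 60 min, 25 °C, Tris-HCl pH 7.4/MgCl2/EDTA buffer. NSB: 10 μM WB-4101. Filtration, counting; % inhibition of specific binding.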

[4] = target: T4, human recombinant adrenergic α2B receptor (Homo sapiens, UniProt P18089); assay: Radioligand binding, adrenergic α2B ([3H]Rauwolscine); conditions: for inhibition at 0.03 µM: compound at 0.03 μM; for Ki: read-out: Ki α2B
T4 construct: expressed in transfected cells; host or cells: CHO-K1
T4 sequence (P18089 1-450): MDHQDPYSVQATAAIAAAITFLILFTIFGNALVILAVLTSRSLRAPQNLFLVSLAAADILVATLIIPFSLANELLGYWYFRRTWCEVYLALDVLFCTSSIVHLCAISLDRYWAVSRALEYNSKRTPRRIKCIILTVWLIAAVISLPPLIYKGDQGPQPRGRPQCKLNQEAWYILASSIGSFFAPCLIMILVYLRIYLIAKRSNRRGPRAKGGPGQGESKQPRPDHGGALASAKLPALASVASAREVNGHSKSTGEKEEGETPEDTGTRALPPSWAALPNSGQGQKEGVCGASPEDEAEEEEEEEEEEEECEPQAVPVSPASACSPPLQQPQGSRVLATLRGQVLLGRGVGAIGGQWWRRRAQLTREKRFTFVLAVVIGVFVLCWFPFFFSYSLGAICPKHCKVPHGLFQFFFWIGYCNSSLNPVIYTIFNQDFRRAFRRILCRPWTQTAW
Method in brief: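 Assay used CHO-K1-expressed human α2B receptor in Tris-HCl pH 7.4 buffer with MgCl2, EDTA and BSA; 60 min incubation at 25 °C.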

[5] = read-out: Percentage inhibition of ligand binding, Adrenergic α1D (0.1 μM), compound at 0.1 μM, repeat datapoints each shown
[6] = read-out: Percentage inhibition of ligand binding, Adrenergic α1B (0.1 μM), compound at 0.1 μM, repeat datapoints each shown
[7] = read-out: Percentage inhibition of ligand binding, Adrenergic α2A (0.1 μM), compound at 0.1 μM, repeat datapoints each shown
[8] = read-out: Percentage inhibition of ligand binding, Adrenergic α2B (0.1 μM), compound at 0.1 μM, [3H]Rauwolscine, repeat datapoints each shown
[9] = compound at 0.1 μM, repeat assays, each datapoint shown, read-out: Percentage inhibition of ligand binding, Adrenergic α1D
[10] = compound at 0.1 μM, repeat assays, each datapoint shown, read-out: Percentage inhibition of ligand binding, Adrenergic α1B
[11] = compound at 0.1 μM, repeat assays, each datapoint shown, read-out: Percentage inhibition of ligand binding, Adrenergic α2A
[12] = compound at 0.1 μM, [3H]Rauwolscine, repeat assays, each datapoint shown, read-out: Percentage inhibition of ligand binding, Adrenergic α2B
[13] = [3H]Rauwolscine, repeat assays, each datapoint shown, read-out: Percentage inhibition of ligand binding, Adrenergic α2B
[14] = compound at 0.1 μM, repeat assays, each datapoint shown, 0.1 µM
[15] = compound at 0.1 μM, repeat datapoints each shown, 0.1 µM

SMILES | inhibition at 0.1 µM [1, 5] [%] | inhibition at 0.1 µM [2, 6] [%] | inhibition at 0.1 µM [3, 7] [%] | inhibition at 0.1 µM [4, 8] [%] | inhibition at 0.1 µM [1, 9] [%] | inhibition at 0.1 µM [2, 10] [%] | inhibition at 0.1 µM [3, 11] [%] | inhibition at 0.1 µM [4, 12] [%] | further results
Cc1ccc(CCn2c3c(c4cccnc42)C2CCCN2CC3)cn1 (centres unmarked) [IV-4] | 15 | 2 | -3 | 56 |  |  |  |  | 
Cc1ccc2c(c1)c1c(n2CC(C)(O)c2ccc(C)nc2)CCN(C)C1 (centres unmarked) [compound 29] |  |  |  |  | 1 | 24 | 10 | 100 | 
Cc1ccc2c(c1)c1c(n2CCc2ccc(C(F)(F)F)nc2)CCN(C)C1 [compound 86] |  |  |  |  | 62 | 62 | 27 | 77 | 
CN1CCc2c(c3cc(Cl)ccc3n2CCC(=O)OCC2CCCCC2)C1 [compound 87] |  |  |  |  | 24 | 5 | 14 | 66 | 
CN1CCc2c(c3cc(Cl)ccc3n2CCC(=O)OC2CCCC2)C1 [compound 88] |  |  |  |  | 36 | 10 | 2 | 90 | 
CCc1ccc(CCn2c3c(c4cc(C)ccc42)CN(C)CC3)cn1 [compound 89] |  |  |  |  | 68 | 79 | 23 |  | inhibition at 0.03 µM [4, 13]: 25%; Percentage inhibition of ligand binding, Adrenergic α2B ([4]; compound at 0.1 μM, [3H]Rauwolscine, repeat assays, each datapoint shown, 0.1 µM): 57% and 79%; Ki [4]: 32 nM
Cc1ccc2c(c1)c1c(n2CC(C)(O)c2ccc(F)cc2)CCN(C)C1 (centres unmarked) [compound 90] |  |  |  |  | 20 |  |  | 91 | Percentage inhibition of ligand binding, Adrenergic α1B [2, 14]: 57%; Percentage inhibition of ligand binding, Adrenergic α2A [3, 14]: 22%
Cc1ccc2c(c1)c1c(n2CCc2cncc(Cl)c2)CCN(C)CC1 [compound 92] | 46 | 77 | 30 | 77 |  |  |  |  | 
Cc1ccc(C(C)(O)Cn2c3c(c4cc(Cl)ccc42)CN(C)CC3)cn1 (centres unmarked) [compound 93] | 6 |  |  | 87 |  |  |  |  | Percentage inhibition of ligand binding, Adrenergic α1B (0.1 μM) [2, 15]: 25%; Percentage inhibition of ligand binding, Adrenergic α2A (0.1 μM) [3, 15]: 21%
Cc1ccc(C#Cn2c3c(c4cc(Cl)ccc42)C2CCC(C3)N2C)cn1 (centres unmarked) [compound 95] | 29 | 52 | 9 | 105 |  |  |  |  | 
C/C(=C\n1c2c(c3cc(C)ccc31)CCN(C)C2C)c1ccccc1F (centres unmarked) [compound 96] | 3 | 25 | 29 | 71 |  |  |  |  | 
C/C(=C\n1c2c(c3cc(Cl)ccc31)C1CCC(C2)N1C)c1cccnc1 (centres unmarked) [compound 97] | -7 | 3 | -12 | 88 |  |  |  |  | 

Now from value to molecule, other results behind:

inhibition at 0.1 µM [1, 5] [%] | inhibition at 0.1 µM [2, 6] [%] | inhibition at 0.1 µM [3, 7] [%] | inhibition at 0.1 µM [4, 8] [%] | inhibition at 0.1 µM [1, 9] [%] | inhibition at 0.1 µM [2, 10] [%] | inhibition at 0.1 µM [3, 11] [%] | inhibition at 0.1 µM [4, 12] [%] | SMILES | further results
 |  |  |  | 16 | 32 | 6 | 74 | CN1CCc2c(c3cc(Cl)ccc3n2CC(C)(O)c2ccncc2)C1 (centres unmarked) [compound 1] | 
 |  |  |  | 7 | 12 | 28 | 86 | CN1CCc2c(c3cccc(Cl)c3n2CC(C)(O)c2ccncc2)C1 (centres unmarked) [compound 32] | 
 |  |  |  | 35 | 65 | 26 | 93 | CN1CCc2c(c3cc(Cl)ccc3n2CCc2cccnc2)C1 [compound 60] | inhibition at 0.03 µM [4, 13]: 66%; Ki [4]: 5.84 nM
 |  |  |  | 36 | 69 | 27 | 84 | Cc1ccc2c(c1)c1c(n2CCc2ccccn2)CCN(C)C1 [compound 84] | 
10 | 40 | 11 | 66 |  |  |  |  | Cc1ccc2c(c1)c1c(n2CC(=O)c2ccc(F)cc2)CCN(C)C1 [compound 94] | 
34 | 69 | 29 | 85 |  |  |  |  | C/C(=C\n1c2c(c3cc(C)ccc31)CCN(C)CC2)c1ccncc1 [compound 99] | 
47 | 73 | 20 | 72 |  |  |  |  | COc1ccc2c(c1)c1c(n2/C=C(/C)c2ccncc2)CCN(C)C1 [compound 100] | 
21 | 40 | 21 | 77 |  |  |  |  | Cc1ccc2c(c1)c1c(n2CC(C)(F)c2ccncc2)CCN(C)C1 (centres unmarked) [compound 102] | 
20 | 49 | 19 | 80 |  |  |  |  | C/C(=C\n1c2c(c3cc(C)ccc31)CNCC2)c1ccncc1 [compound 103] | 
36 | 57 | 14 | 68 |  |  |  |  | Cc1ccc2c(c1)c1c(n2/C=C(\F)c2ccncc2)CCN(C)C1 [compound 105] | 
